Measurements as given in patent US7897340B2, “Use of tumor susceptibilty gene 101 (TSG 101) as a prognostic and diagnostic marker” (The Board of Regents of the University of Texas System, priority 2006, dated 2011).
Entries after “also recorded” stand apart in the source; their conditions may differ.

What was measured:
SKOV-3 cells [1] = assay: Cell viability MTT assay; type: cell-based, human; conditions: SKOV-3, days 3 to 7 post transfection, vs scrambled control siRNA
Excerpt: A siRNA duplex specific for TSG101 (targeting TSG101 coding sequence 413-433) and a scrambled random control siRNA with matching GC content were obtained from Dharmacon. This specific TSG101 siRNA duplex (sense: CCUCCAGUCUUCUCUCGUCdTdT (SEQ ID NO: 7) and antisense: dTd[…] (SEQ ID NO: 8) have been successfully applied to suppress the expression of endogenous TSG101 in several high quality studies (Amit et al., 2004; Garrus et al., 2001; Hewitt et al., 2002; Ismaili et al., 2005). Transfection of the siRNAs was according to the manufacturer's instructions using Lipofectamine 2000 (Invitrogen).
SKOV-3 cells were trypsinized 48 hrs post-transfection with siRNAs and plated at 2×10^3 cells/well in 96 well plates, with 5 wells for each treatment. On subsequent days (days 3 to 7), media was removed and 100 μl/well fresh media was added along with 10 μl of 3-(4,5-dimethylthiazol-2-yl)-2,5-diphenyl tetrazolium bromide (MTT) to a final concentration of 500 μg/ml. Cells were incubated for 3 hrs at 37° C., and then lysed by adding 200 μl/well DMSO and incubating at 37° C. for 1 hr. Cell viability was measured by reduction of MTT, which registered absorbance at 595 nm on a Molecular Devices microplate reader.

SKOV-3 cells [2] = assay: In vivo tumor formation assay in nude mice; design: species or system Balb/c athymic nude mice; conditions: siRNA-transfected SKOV-3 cells injected s.c. into flanks of nude mice, four mice, vs control siRNA cells
Protocol: SKOV-3 cells were trypsinized 3 days following transfection with either Control or TSG101 siRNA, and subsequently washed and resuspended in phosphate-buffered saline at 5×10^6 cells/ml. 200 μl (1×10^6 cells) of control or TSG101 transfected SKOV-3 cells were injected s.c. into the right and left flanks (respectively) of 4-6 week old Balb/c athymic nude mice (Jackson Laboratory, Bar Harbor, Me.). Mice were examined every 5 days until visible tumors appeared. Subsequently, tumor volume measurements were taken every 3-5 days, and mice were sacrificed 6 weeks after initial injections, and a final measurement of tumor volume was taken.
Further, in vivo tumor formation assay in nude mice was performed to determine if TSG101 knockdown affected the tumorigenicity of SKOV-3 cells. Seventy-two hours post transfection, SKOV-3 cells transfected either with TSG101 or control siRNA duplex were pair-wise injected subcutaneously into the left or right flanks, respectively, of the same BALB/c athymic nude mouse. Tumor growth was monitored for 6 weeks, at which time the tumors were harvested and tumor volume was measured. […] Due to the transient nature of the siRNA duplex, the actual effect of TSG101 gene silencing should be more prominent.

SKOV-3 cells [3] = assay: Flow cytometry cell cycle analysis (propidium iodide); type: cell-based, human
Protocol: SKOV-3 cells transfected with either TSG101 or control siRNA were grown and harvested 4 and 6 days after transfection. 1×10^6 cells were trypsinized from 10 cm plates and transferred to FACS tubes, washed twice with PBS, and then fixed with 70% ethanol for 2 h on ice. Ethanol was removed by centrifugation and cells were rehydrated in PBS at room temperature for 5 min. Cells were centrifuged to remove PBS and stained with 1 ml of propidium iodide staining solution (0.1% Triton X-100, 0.2 mg/ml RNAase A, 0.05 mg/ml propidium iodide, prepared fresh) for 1 h at room temperature. Cellular DNA content was then determined on a Becton-Dickinson FACS-Scan apparatus.

p21 mRNA = p21 mRNA by RT-PCR in SKOV-3 cells; type: cell-based, human; conditions: SKOV-3, after 4 days following siRNA transfection
Protocol: Total RNA was isolated from cells using Trizol reagent (Invitrogen), and concentration was determined by absorbance at 260 nm. Semiquantitative RT-PCR was carried out using 1 μg of isolated total RNA. Primers used for RT-PCR were TSG101 forward 5′-[…]-3′ (SEQ ID NO: 1), reverse 5′-[…]-3′ (SEQ ID NO:2), p21 forward 5′-[…]-3′ (SEQ ID NO: 9), reverse 5′-CCGTTTTCGACCCTGAGAG-3′ (SEQ ID NO:10).

p21 = p21 protein by immunoblotting in SKOV-3 cells; type: cell-based, human; conditions: SKOV-3, after 4 days following siRNA transfection
Protocol: Cells transfected with either control or TSG101 siRNA were passaged and subsequently harvested on the appropriate days by trypsinizing cells, washing pelleted cells in PBS and then lysing cells in SDS lysis buffer. Protein concentration of cell lysates was assayed with the Bio-Rad protein assay reagent. […] Immunoblots were developed by enhanced chemiluminescence (Pierce, Rockford, Ill.).

p21 promoter = p21 promoter luciferase reporter assay in SKOV-3 cells; type: cell-based, human
Excerpt: To investigate the mechanism by which TSG101 silencing induced the accumulation of p21 mRNA, a plasmid construct, p21P, with a luciferase reporter gene under the transcriptional control of the p21 promoter was co-transfected into the SKOV-3 cells either with TSG101 specific or control siRNA. […] Since SKOV-3 cells are p53-null, this apparent TSG101 silencing-mediated transcriptional activation of p21 was most likely p53-independent.
To further confirm this observation, the luciferase reporter activity was monitored using a deletion p21 reporter construct, p21PΔ1.1, which contained a 1.1 kb deletion that removed the consensus p53-responsive element from the 5′ region of the 2.4 kb p21 promoter 27. […] Since TSG101 contained a putative DNA-binding domain and could act as a general transcriptional suppressor 2, it was hypothesized that TSG101, acting as a transcriptional corepressor, suppressed the transactional activation of p21 by binding to the p21 promoter. Consequently, suppression of TSG101 by siRNA led to the transcriptional activation of p21.

TSG101 siRNA: siRNA duplex from Dharmacon targeting TSG101 coding sequence 413-433, SEQ ID NO: 7 and 8 (chain 1 CCUCCAGUCUUCUCUCGUCTT; chain 2 TTGGAGGUCAGAAGAGAGCAG; chemistry not fully specified; one strand is listed 3' to 5')
cell viability (MTT) (SKOV-3 cells [1]): decrease dramatically in number beginning 5 days post transfection
tumor volume (SKOV-3 cells [2]): significantly smaller; also recorded: reduced tumor growth
cellular DNA content vs control siRNA (SKOV-3 cells [3]; SKOV-3, day 4): very similar
sub-G1 apoptotic cell debris (SKOV-3 cells [3]; SKOV-3, day 4): not seen
G1/G0 phase cells (SKOV-3 cells [3]; SKOV-3, day 6): decrease
number of cells in G2/M phase (SKOV-3 cells [3]; SKOV-3, day 6): significant increase
sub-G1 apoptotic cell debris (SKOV-3 cells [3]; SKOV-3, day 6): significant population
p21 messenger RNA level (p21 mRNA): significantly upregulated
p21 protein level (p21): significantly upregulated
induction of p21 (luciferase reporter) (p21 promoter; SKOV-3, full-length p21 promoter construct p21P): 6 fold
luciferase activity (p21 promoter reporter) (p21 promoter; SKOV-3, p21P construct co-transfected with siRNA, vs control siRNA): significantly increased; also recorded: potentiates p21 transcription
induction of p21 (luciferase reporter) (p21 promoter; SKOV-3, p53-deletion construct p21PΔ1.1): 6 fold
